Earlier results, collected in article PMC8075256, “Transport of Alzheimer’s associated amyloid-β catalyzed by P-glycoprotein” (PLOS ONE, 2021).

Tested on: P-gp and BCRP
Conditions: ref 65 Kannan et al.
Text: To further test if P-gp can transport Aβ42, we performed fluorescence accumulation assays in a human cellular system. […] Previous work by our group has shown that the chemotherapy-sensitive, non-P-gp-overexpressing DU145 cells do express detecta ...

## COc1cc2c(cc1OC)CN(CCc1ccc(NC(=O)c3cc(OC)c(OC)cc3NC(=O)c3cnc4ccccc4c3)cc1)CC2 [Tariquidar]
  concentrations at which TQR acts as an inhibitor of both P-gp and BCRP: greater than 100 nM
